Laboratory results from PubChem BioAssay (NCI).
“And” between values parts separate entries of the source, which are not always exact repeats. Identical values can stand only once.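 A five-concentration, 48-hour dose response in 96-well plates underlies each endpoint, interpolated linearly between surrounding concentrations. TGI: total growth inhibition.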

What was measured:
Test in all cases: inhibition of tumour cell growth, NCI panel, 48 h
[1] = system: T-47D breast
[2] = system: EKVX NSCLC
[3] = system: SK-OV-3 ovarian
[4] = system: MCF7 breast
[5] = system: SR leukemia
[6] = system: A549 NSCLC
[7] = system: ACHN renal
[8] = system: SK-MEL-5 melanoma
[9] = system: CAKI-1 renal
[10] = system: MDA-MB-435

SMILES | TGI [1] | TGI [2] [µM] | TGI [3] | TGI [4] [µM] | TGI [5] [µM] | TGI [6] [µM] | TGI [7] [µM] | TGI [8] [µM] | TGI [9] | TGI [10] [µM]
COC(=O)/C=C\C(C#N)(C#N)N=Cc1ccc(C)cc1 | 4.61 µM | 28.7 | 31.6 µM | 3.68 | 3.8 | 34.3 | 6.04 | 26.9 | 6.53 µM | 5.01
O=S(=O)(O)C(CO)c1ccccc1 (stereo not given) (tested in a mixture with another compound) | > 100 µM | > 100 | > 100 µM | > 100 | > 100 | > 100 | > 100 | > 100 | > 100 µM | > 100
COc1ccc(N2C(=O)CC(=O)N(NC(=O)C(C)Oc3ccccc3C)C2=S)cc1 (stereo not given) | > 100 µM | > 100 | > 100 µM | > 100 | > 100 | > 100 | > 100 | > 100 | > 100 µM | > 100
O=C(O)CN1CCN2CCCCCN(CC1)CCN(CC(=O)O)CC2 | > 100 µM | > 100 | > 100 µM | > 100 | > 100 | > 100 | > 100 | > 100 | > 100 µM | > 100
Cc1nn(-c2ccccc2)c2c1C(c1cc3ccccc3nc1Cl)NC(=O)N2 (stereo not given) | > 100 µM | 88.8 | 49.1 µM | 73.9 | > 100 | > 100 | 35.8 | 31.3 | > 100 µM | 54.7
COc1ccc(C(=O)/C=C/c2ccc(OCCCOc3ccc(/C=C/C(=O)c4ccc(OC)cc4)cc3)cc2)cc1 | > 100 µM | > 100 | > 100 µM | > 100 | > 100 | > 100 | > 100 | > 100 | > 100 µM | > 100
Clc1ccc(-c2nnc3sc4nc5ccccc5c-4nn23)c(Cl)c1 | > 100 µM | > 100 | > 100 µM | > 100 | > 100 | > 100 | > 100 | > 100 | > 100 µM | > 100
O=C(O)CN1CCNCCN(CC(=O)O)CCN(CC(=O)O)CCNCC1 | > 100 µM | > 100 | > 100 µM | > 100 | > 100 | > 100 | > 100 | > 100 | > 100 µM | > 100
COc1cc2c(cc1OC)C1C3CCCCC3CCN1CC2 (stereo not given) | > 100 µM | > 100 | > 100 µM | > 100 | > 100 | > 100 | > 100 | > 100 | > 100 µM | > 100
O=C(CCn1ccnc1[N+](=O)[O-])NCCCn1ccnc1[N+](=O)[O-] | > 100 µM | > 100 | > 100 µM | > 100 | > 100 | > 100 | > 100 | > 100 | > 100 µM | > 100
O=C(O)c1ccccc1CC(Cc1ccc2c(c1)CCC2)C(=O)O (stereo not given) | > 100 µM | > 100 | > 100 µM | > 100 | > 100 | > 100 | > 100 | > 100 | > 100 µM | > 100
O=C1NC(N2CCOCC2)=N/C1=C\c1ccco1 | > 100 µM | > 100 | > 100 µM | > 100 | > 100 | > 100 | > 100 | > 100 | > 100 µM | > 100
C=C1C(=O)CC2C1CC(=O)/C(C)=C/CCC(C)(O)C2O (stereo not given) | 3.96 µM | 34.3 | 49.8 µM | 8.38 | > 37.6 | 46.5 | 4.92 | 17.6 | 3.37 µM | 20.4
Oc1cc(Cl)cc2cccnc12 | 26.2 µM | > 30.1 | > 100 µM | 7.87 | 4.27 | > 100 | > 91.6 | 13.4 | > 100 µM | > 77.6
Cc1cc(/N=C/c2ccc(N(C)C)cc2)n(-c2ccccc2)n1 | 89.5 µM | > 100 | > 100 µM | > 100 | > 100 | > 100 | > 100 | > 100 | > 100 µM | > 100
CC(C)c1cc2c(c(O)c1O)[C@@]1(C(=O)O)CCCC(C)(C)[C@@H]1CC2 | 55 µM | 30.8 | > 100 µM | 45.2 | 33.7 | 67.4 | 26.2 | 47.2 | 51.8 µM | 34.5

SMILES | TGI [1] | TGI [2] [µM] | TGI [3] | TGI [4] [µM] | TGI [5] [µM] | TGI [6] [µM] | TGI [7] [µM] | TGI [8] [µM] | TGI [9] | TGI [10] [µM]
CC1(C)[C@@H]2CC[C@@]1(C)CN(CCC[N+](C)(C)C)C2 | > 100 µM | > 100 | > 100 µM | > 100 | > 100 | > 100 | > 100 | > 100 | > 100 µM | > 100
O=[N+]([O-])C(=C(Nc1cccc2cccnc12)Nc1cccc2cccnc12)C(Cl)=C(Cl)Cl | > 100 µM | > 100 | > 100 µM | 54.8 | > 100 | > 100 | > 51.1 | 30.5 | > 92.2 µM | > 100
C=C(C(=O)OCC)C(=O)OCC | > 100 µM | > 100 | > 100 µM | > 100 | > 100 | > 100 | > 100 | > 100 | > 100 µM | > 100
CNc1cc2c(c3ccccc13)C(CCl)CN2C(=O)c1cc2cc(OC)c(OC)c(OC)c2[nH]1 (stereo not given) | 0.0756 µM and 0.405 µM | 0.0155 | 0.894 µM and 0.982 µM | 0.131 | 0.00402 | > 100 | 0.00154 | 0.00435 | 0.00431 µM and 0.022 µM | 0.0131
O=C1c2cc(-c3ccccc3)cnc2S(=O)(=O)N1c1ccc(Br)cc1 | > 100 µM | > 100 | 53.9 µM | > 100 | 35 | 49.3 | > 100 | > 100 | > 100 µM | > 100
CC(C)(C)[Si](C)(C)OCC1OC(n2ccc(=O)[nH]c2=O)C(O[Si](C)(C)C(C)(C)C)/C1=C/C#N (stereo not given) | > 100 µM | > 100 | > 100 µM | > 61.9 | > 100 | > 100 | > 60.5 | 11.9 | 98.2 µM | > 38.7
NS(=O)(=O)c1ccc(NC(=S)/N=C/C2=C(O)c3ccccc3C2=O)cc1 | > 100 µM | > 100 | > 100 µM | > 100 | > 100 | > 100 | > 100 | > 100 | > 100 µM | > 100
CCOC(=O)c1cccc(N=Nc2nc[nH]c2/C=C/C(=O)OC)c1 | > 100 µM | > 100 | > 100 µM | > 100 | 12 | > 100 | > 100 | 36.9 | > 100 µM | > 100
Cc1nc(C)c(N2CCN([N+](=O)[O-])CC2)c(=O)[nH]1 | > 100 µM | > 100 | > 100 µM | > 100 | > 100 | > 100 | > 100 | > 100 | > 100 µM | > 100
O=C(/C=C/c1ccccc1)Oc1ccc(C(=O)/C=C/c2ccccc2)cc1 | 15.6 µM | 22 | > 31.6 µM | > 31.6 | 6.82 | > 89.1 | 18.3 | 37 | 19.8 µM | 18.8
CC(C)SC(=S)Sc1c(Cl)c(Cl)nc(Cl)c1Cl | 4.39 µM | 22.8 | 32.7 µM | 15.7 | 11.3 | 40.8 | 18.6 | 29.1 | 8.49 µM | 19.6
O=C(NCP(=O)(Oc1ccccc1)Oc1ccccc1)OCc1ccccc1 | > 100 µM | > 100 | > 100 µM | > 100 | > 100 | > 100 | > 100 | > 100 | > 100 µM | > 100
N#CC(C#N)=C1SC(=Nc2ccccc2)C(=Nc2ccccc2)N1c1ccccc1 | 18 µM | > 100 | > 100 µM | > 58.7 | > 26.2 | > 100 | 71.3 | 28.7 | > 56.3 µM | 35.1
Cc1c2cc[n+](C)c(C)c2cc2c1[nH]c1ccccc12 | 10.4 µM | 42.7 | 89.2 µM | 70.1 | > 100 | 68.7 | > 100 | 11 | > 91.9 µM | > 75.2
CC1(C)OC[C@@H](O)[C@H](C#N)CO1 | > 100 µM | > 100 | > 100 µM | > 100 | > 100 | > 100 | > 100 | > 100 | > 100 µM | > 100
